Laboratory results reported in ChEMBL document CHEMBL4002561, “Discovery of resveratrol derivatives as novel LSD1 inhibitors: Design, synthesis and their biological evaluation” (Eur J Med Chem, 2017).
Calls of active or inactive are those of the source. The rule behind the calls is not given here.

Columns and labels:
MGC-803 = assay: Effect on LSD1 expression in human MGC803 cells up to 2.5 uM after 5 days by DAPI staining based immunofluorescence assay; assay type: functional, cell-based
[1] = biological target: Lysine-specific histone demethylase 1A (Homo sapiens, UniProt O60341)
Description: Inhibition of recombinant full length LSD1 (unknown origin) expressed in Escherichia coli BL21 (DE) using H3K4me2 substrate by fluorescence assay

| IC50 [1] | Compound | Activity (MGC-803) |
| --- | --- | --- |
| – | N/C(=N\O)c1ccc(/C=C/c2cc(O)c(O)cc2Br)cc1 | inactive |
| 10.2 µM | Oc1ccc(/C=C/c2cc(O)cc(O)c2)cc1 [RESVERATROL] | – |
| – | N/C(=N\O)c1cccc(/C=C/c2cc(O)c(O)cc2Br)c1 | inactive |
